# What was measured:
# [1] = target: mAb 10D6 (anti-PS-I IgG1); experiment: Kinetic SPR of glycans binding to captured mAb 10D6; parameters: species or system mouse; settings: mAb 10D6, PBS, 25 °C, mean±s.e.m. n=3 or mean (min;max) n=2
# Protocol: Kinetic SPR experiments were performed to determine the binding strengths of the mAbs to PS-I glycans expressed as dissociation constants (KD)[8] (Fig. 5a). […] Overall, the SPR measurements (summarized in Table 1) confirmed results obtained by glycan microarray presented above.
# Binding analyses were carried out on a Biacore T100 instrument (GE Healthcare). CM5 sensor chips were functionalized with about 10,000 RUs of α-mouse IgG capture antibody, using the Mouse Antibody Capture Kit and the Amine Coupling Kit (GE Healthcare) according to the manufacturer's recommendations. A blank-immobilized flow cell was used as reference, to compensate for nonspecific binding of antibodies or oligosaccharides to the sensor chip surface. Kinetic measurements were performed with the Biacore T100 Control software using the ‘Kinetics' function. PBS was used as running buffer and all measurements were performed at 25 °C and a flow rate of 30 μl min^−1. About 500 RUs of mAbs were captured at a concentration of 50 μg ml^−1 diluted in PBS and oligosaccharides or OAAs (in PBS) at the indicated concentrations were passed through, using the standard parameters for association and dissociation times unless mentioned otherwise. […] The fitting quality was evaluated by investigating respective residual plots, χ^2 and s.e. values for on- and off-rates. […]
# All sensorgrams were recorded on a Biacore T100 instrument (GE […]
# anti-PS-I mAbs = experiment: STD-NMR competition experiment; format: binding, mouse; settings: 1 added to 200 μM, saturation transfer time 2 s
# Text: (§1) Figure 6 Epitope mapping of glycan–mAb interactions by STD-NMR. (a,b) Recognition of disaccharide 3 by mAb 10A1 shown as Lewis structure and three-dimensional model calculated with Glycam[70]. Colours indicate percentages of STD effects. (c) Recognition patterns of 3 by three mAbs. STD spectra were acquired at 2 s saturation transfer time in the presence of mAbs 2C5, 10A1 and 10D6 (from top to bottom). (d) Competition of trisaccharide 2 by pentasaccharide 1.
# Owing to the slow off-rates of 1 with all three mAbs, we were unable to determine any STD effects for the pentasaccharide. […] This indicated identical binding sites and confirmed high-affinity binding of 1.
# Before the STD-NMR studies, proton resonances of oligosaccharides 1–3 were assigned using standard one-dimensional proton spectra, as well as 2D total correlation spectroscopy (2D-TOCSY), correlation spectroscopy, ^1H–^13C heteronuclear single quantum coherence and ^1H–^13C heteronuclear multiple bond correlation spectra at concentrations varying between 5 and 20 mM in D2O. All NMR studies were measured at 298 K on a Varian PremiumCOMPACT 600 MHz spectrometer equipped with a OneNMR probe. […] A total of 2,048 scans were recorded. […] STD build-up curves for mAb 10A1 were recorded at saturation transfer times of 0.5, 1, 2, 4 and 6 s, adjusting the prescan delay accordingly. […]
# mAb 10A1 = experiment: STD-NMR epitope mapping; format: binding, mouse; settings: 200 μM ligand, 2 μM antibody
# Text: To understand antibody binding at molecular-level detail and to identify the functional groups involved in antibody binding, we performed STD-NMR measurements. […] The glucose moiety in 3 contributed weakly to antibody binding around H3 (11%). Despite the low saturation transfer, this interaction appears to be important for antibody binding, as mono-rhamnose 4 was not or only weakly bound by the mAbs in glycan microarray and SPR experiments.
# as §1
# Before the STD-NMR studies, proton resonances of oligosaccharides 1–3 were assigned using standard one-dimensional proton spectra, as well as 2D total correlation spectroscopy (2D-TOCSY), correlation spectroscopy, ^1H–^13C heteronuclear single quantum coherence and ^1H–^13C heteronuclear multiple bond correlation spectra at concentrations varying between 5 and 20 mM in D2O. All NMR studies were measured at 298 K on a Varian PremiumCOMPACT 600 MHz spectrometer equipped with a OneNMR probe. For STD-NMR, samples contained 200 μM ligand and 2 μM antibody in 40 mM phosphate buffer (pH 7.0, uncorrected). On-resonance irradiation was set to −0.5 p.p.m. and off-resonance irradiation was set to 80 p.p.m. A 35-ms T1ρ spin-lock filter and a W5 WATERGATE for solvent suppression were applied. The saturation pulse train consisted of a series of Gaussian shaped pulses of 50 ms duration and 1 ms interpulse delay with an irradiation power of 85 Hz. A total of 2,048 scans were recorded. STD-NMR spectra of carbohydrates in the absence of antibody and spectra of antibody only served as negative controls. Here, saturation and relaxation times were set to 2 and 6 s, respectively. STD build-up curves for mAb 10A1 were recorded at saturation transfer times of 0.5, 1, 2, 4 and 6 s, adjusting the prescan delay accordingly. Epitopes for mAbs 2C5 and 10D6 were recorded with a saturation transfer time of 2 s. NMR spectra were processed in MestReNova 9.1 (MestreLab) and data were analysed in OriginPro9 (OriginLab) to obtain the binding epitopes according to Mayer and James[28]. For the competition experiments, 1 was added to samples of 3 or 2 to a final concentration of 200 μM applying a saturation transfer time of 2 s.
smiles,measurement,setting,value
C[C@@H]1O[C@@H](O[C@@H]2[C@@H](O)[C@H](O[C@H]3[C@H](O[C@@H]4O[C@@H](C)[C@H](O)[C@@H](O)[C@H]4O)[C@@H](O)[C@@H](O[C@H]4[C@@H](OCCCCCN)O[C@H](CO)[C@@H](O)[C@@H]4O)O[C@@H]3CO)O[C@H](CO)[C@H]2O)[C@H](O)[C@H](O)[C@H]1O [Compound 1],Kd,[1],0.169 µM
same,Competition of trisaccharide 2 STD effects (in words),anti-PS-I mAbs,completely diminished any STD effects imposed by 2
"C[C@@H]1O[C@@H](O[C@@H]2[C@@H](O)[C@H](OCCCCCN)O[C@H](CO)[C@H]2O)[C@H](O)[C@H](O)[C@H]1O [Compound 3, Rha-(1→3)-Glc]",Kd,[1],37.5 ± 0.4 µM
same,"normalized STD effect, glucose H3",mAb 10A1,11%
same,"normalized STD effect, rhamnose H2",mAb 10A1,78%
same,"normalized STD effect, rhamnose H3",mAb 10A1,99%
same,"normalized STD effect, rhamnose methyl protons H6, H'6 and H''6",mAb 10A1,100%
